From US20080045537A1, “Chemical Compounds” (priority 2004, published 2008)
Read-outs that look alike come from different tables or passages of the source.

Assays:
Assay type in all cases: cell-based
[1] = tested on: HIV-1 IIIB (T-tropic, CXCR4 utilizing); assay: HOS HIV-1 infectivity assay
Summary of the method: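 Engineered HOS reporter cells in 2% FCS medium received compound 1 h ahead of HIV-1 (~2 million RLU/well). Cultures ran 96 h at 37 °C before luciferase quantitation; parallel uninfected wells were scored for viability by CellTiter-Glo.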

[2] = target: T1, human CXCR4 (Homo sapiens, UniProt P61073); assay: Functional FLIPR assay (block of SDF-1 alpha induced [Ca2+]i change); conditions: HEK-293 cells with human CXCR4 BacMam and Gqi5 BacMam; antagonism of SDF-1 alpha; read-out: Functional assay (pIC50) (converted)
T1 construct: expressed in transfected cells; host or cells: HEK-293 cells (stably expressing human macrophage scavenging receptor) transduced with human CXCR4 BacMam and Gqi5 BacMam baculoviruses
Protocol: Human embryonic kidney (HEK-293) cells were maintained and harvested as described above. Cells were plated in 96-well, black clear bottom, poly-lysine coated plates at a concentration of 40,000 cells per well in a final volume of 100 ul containing human CXCR4BacMam (MOI=25) and Gqi5 BacMam (MOI=12.5). The cells were incubated at 37° C., 5% CO2, 95% humidity for 24 h to allow for protein expression.
After the required incubation time the cells were washed once with 50 ul of fresh serum-free DMEM/F12 media containing probenicid. 50 ul of dye solution was then added to the cells (Calcium Plus Assay Kit Dye; Molecular Devices) was dissolved in 200 ml of the above probenicid/BSA containing media and incubated for 1 h. Cell plates were transferred to a Fluorometric Imaging Plate Reader (FLIPR). Upon addition the effect of the compounds on the change in [Ca^2+]i was examined to determine if the compounds were agonists or antagonists (ability to block SDF-1 alpha activity) at the CXCR4 receptor. IC50 values are determined and pKb values are calculated using the Leff and Dougall equation: KB=IC50/((2+([agonist]/EC50ˆb)ˆ1/b−1) Where IC50 is that defined by the antagonist concentration-response curve [agonist] is the EC80 concentration of agonist used EC50 is that defined by the agonist concentration-response curve b is the slope of the agonist concentration-response curve.

[3] = Compound cytotoxicity in the absence of virus addition (CellTiter-Glo); conditions: human; non-infected HOS cultures; read-out: Cytotox (pIC50) (converted)
Protocol: Compounds were profiled against two HIV-1 viruses, the M-tropic (CCR5 utilizing) Ba-L strain and the T-tropic (CXCR4 utilizing) IIIB strain. Both viruses were propagated in human peripheral blood lymphocytes. Compounds were tested for there ability to block infection of the HOS cell line (expressing hCXCR4/hCCR5/hCD4/pHIV-LTR-luciferase) by either HIV-1 Ba-L or HIV-1 IIIB. Compound cytotoxicity was also examined in the absence of virus addition.
HOS cells (expressing hCXCR4/hCCR5/hCD4/pHIV-LTR-luciferase) were harvested and diluted in Dulbeccos modified Eagles media supplemented with 2% FCS and non-essential amino acid to a concentration of 60,000 cells/ml. The cells were plated into 96-well plates (100 ul per well) and the plates were placed in a tissue culture incubator (37° C.; 5% CO2/95% air) for a period of 24 h.
Subsequently, 50 ul of the desired drug solution (4 times the final concentration) was added to each well and the plates were returned to the tissue culture incubator (37° C.; 5% CO2/95% air) for 1 h. Following this incubation 50 ul of diluted virus was added to each well (approximately 2 million RLU per well of virus). The plates were returned to the tissue culture incubator (37° C.; 5% CO2/95% air) and were incubated for a further 96 h.
Following this incubation the endpoint for the virally infected cultures was quantified following addition of Steady-Glo Luciferase assay system reagent (Promega, Madison, Wis.). Cell viability or non-infected cultures was measured using a CellTiter-Glo luminescent cell viability assay system (Promega, Madison, Wis.). All luminescent readouts are performed on a Topcount luminescence detector (Packard, Meridien, Conn.).

[4] = tested on: HIV-1 gp160 (from the HXB2 HIV strain); assay: Cell/cell fusion assay (HEK-293 expressing HIV-1 tat, rev, gp160 with HOS hCXCR4/hCCR5/hCD4/pHIV-LTR-luciferase cells); conditions: Human immunodeficiency virus 1, HXB2, HEK293, 24 h, read-out: Fusion assay (pIC50), luciferase readout after 24 h (converted)
Source text: The complete coding sequences of HIV-1 tat (GenBank Accession No. X07861) and rev (GenBank Accession No. M34378) were cloned into pcDNA3.1 expression vectors containing G418 and hygromycin resistance genes, respectively. The complete coding sequence of the HIV-1 (HXB2 strain) gp160 envelope gene (nucleotide bases 6225-8795 of GenBank Accession No. K03455) was cloned into plasmid pCRII-TOPO. The three HIV genes were additionally inserted into the baculovirus shuttle vector, pFastBacMam1, under the transcriptional control of the CMV promoter. A construction of the pHIV-I LTR containing mutated NFkB sequences linked to the luciferase reporter gene was prepared by digesting pcDNA3.1, containing the G418 resistance gene, with Nru I and Bam HI to remove the CMV promoter. LTR-luc was then cloned into the Nru I/Bam HI sites of the plasmid vector. Plasmid preparations were performed after the plasmids were amplified in Escherichia coli strain DH5-alpha. The fidelity of the inserted sequences was confirmed by double-strand nucleotide sequencing using an ABI Prism Model 377 automated sequencer.
Recombinant BacMam baculoviruses were constructed from pFastBacMam shuttle plasmids by using the bacterial cell-based Bac-to-Bac system. Viruses were propagated in Sf9 (Spodoptera frugiperda) cells cultured in Hink's TNM-FH Insect media supplemented with 10% (v/v) fetal bovine serum and 0.1% (v/v) pluronic F-68 according to established protocols.
Human osteosarcoma (HOS) cells that naturally express human CXCR4 were transfected with human CCR5, human CD4 and the pHIV-LTR-luciferase plasmid using FuGENE 6 transfection reagent. Single cells were isolated and grown under selection condition in order to generate a stable HOS (hCXCR4/hCCR5/hCD4/pHIV-LTR-luciferase) clonal cell line. The cells were maintained in Dulbeccos modified Eagles media supplemented with 10% fetal calf serum (FCS), G418 (400 ug/ml), puromycin (1 ug/ml), mycophenolic acid (40 ug/ml), xanthine (250 ug/ml) and hypoxanthine (13.5 ug/ml) to maintain a selection pressure for cells expressing the LTR-luciferase, hCCR5 and hCD4, respectively. Human embryonic kidney (HEK-293) cells stably transfected to express the human macrophage scavenging receptor (Class A, type 1; GenBank Accession No. D90187), were maintained in DMEM/F-12 media (1:1) supplemented with 10% FCS and 1.5 ug/ml puromycin. The expression of this receptor by the HEK-293 cells enhances their ability to stick to tissue culture treated plasticware.
HEK-293 cells were harvested using enzyme-free cell dissociation buffer. The cells were resuspended in DMEM/F-12 media supplemented with 10% FCS and 1.5 ug/ml and counted. Tranductions were performed by direct addition of BacMam baculovirus containing insect cell media to cells. The cells were simultaneously transduced with BacMam baculovirus expressing HIV-1 tat, HIV-1 rev and HIV-1 gp160 (from the HXB2 HIV strain). Routinely an MOI of 10 of each virus was added to the media containing the cells. 2 mM butyric acid was also added to the cells at this stage to increase protein expression in transduced cells. The cells were subsequently mixed and seeded into a flask at 30 million cells per T225. The cells were incubated at 37° C., 5% CO2, 95% humidity for 24 h to allow for protein expression.
HEK and HOS cells were harvested in DMEM/F-12 media containing 2% FCS and DMEM media containing 2% FCS, respectively, with no selection agents added. Compounds were plated as 1 ul spots in 100% DMSO on a 96-well CulturPlate plates. HOS cells (50 ul) were added first to the wells, followed immediately by the HEK cells (50 ul). The final concentration of each cell type was 20,000 cells per well. Following these additions, the cells were returned to a tissue culture incubator (37° C.; 5% CO2/95% air) for an additional 24 h.
Following the 24 h incubation, total cellular luciferase activity was measured using the LucLite Plus assay kit (Packard, Meridien, Conn.). […]

[5] = Human immunodeficiency virus 1, IIIB, as determined by the infectivity assay, strain not stated in Table 2, read-out: Activity Level
[6] = Human immunodeficiency virus 1, HIV-1 IIIB, HOS cells, 96 h, luciferase readout, read-out: HOS (3B)

T1 sequence (P61073 whole entry): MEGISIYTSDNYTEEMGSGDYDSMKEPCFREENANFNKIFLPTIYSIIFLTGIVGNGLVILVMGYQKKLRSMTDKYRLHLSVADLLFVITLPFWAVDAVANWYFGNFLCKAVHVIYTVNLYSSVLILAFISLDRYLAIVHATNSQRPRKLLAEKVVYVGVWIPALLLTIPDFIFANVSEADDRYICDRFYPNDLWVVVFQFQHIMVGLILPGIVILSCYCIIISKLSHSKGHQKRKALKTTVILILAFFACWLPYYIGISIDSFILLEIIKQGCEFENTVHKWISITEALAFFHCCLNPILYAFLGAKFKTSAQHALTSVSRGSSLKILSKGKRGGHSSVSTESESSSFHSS

With `CN(Cc1nc2cccc(C(=O)NCCCCN)c2[nH]1)C1CCCc2cccnc21` (stereo not drawn) [Example 11, N-(4-Aminobutyl)-2-{[methyl(5,6,7,8-tetrahydro-8-quinolinyl)amino]methyl}-1H-benzimidazole-4-carboxamide] the IC50 [1, 5] was 100 to 500 nM, the IC50 [1, 6] was 395 nM and the IC50 [2] was 257 nM. For the same compound, the IC50 at 96 h [3] was > 100000 nM and the IC50 [4] was 741 nM.

In the case of `CN(Cc1nc2cccc(C(=O)N3CCNCC3)c2n1C)C1CCCc2cccnc21` (stereo not drawn) [Example 8, N-Methyl-N-{[1-methyl-7-(1-piperazinylcarbonyl)-1H-benzimidazol-2-yl]methyl}-5,6,7,8-tetrahydro-8-quinolinamine], the IC50 [1, 5] is reported as < 100 nM, the IC50 [1, 6] is reported as 43 nM and the IC50 [2] is reported as 33.9 nM. The IC50 at 96 h [3] was > 100000 nM and the IC50 [4] was 53.7 nM.

In the case of `CN(Cc1nc2cccc(C(=O)NCCc3cnc[nH]3)c2[nH]1)C1CCCc2cccnc21` (stereo not drawn) [Example 23, N-[2-(1H-Imidazol-4-yl)ethyl]-2-{[methyl(5,6,7,8-tetrahydro-8-quinolinyl)amino]methyl}-1H-benzimidazole-4-carboxamide], the IC50 [1, 5] is reported as < 100 nM, the IC50 [1, 6] is reported as 18 nM and the IC50 [2] is reported as 13.5 nM. For the same compound, the IC50 at 96 h [3] was > 100000 nM and the IC50 [4] was 158 nM.

For `CN(Cc1nc2c(C(=O)NCCN)cccc2[nH]1)C1CCCc2cccnc21` (stereo not drawn) [Example 26, N-(2-Aminoethyl)-2-{[methyl(5,6,7,8-tetrahydro-8-quinolinyl)amino]methyl}-1H-benzimidazole-4-carboxamide], the IC50 [1, 5] was < 100 nM, the IC50 [1, 6] was 27 nM and the IC50 [2] was 20.9 nM. For the same compound, the IC50 at 96 h [3] was > 100000 nM and the IC50 [4] was 49 nM.

In the case of `CCN(Cc1nc2cccc(C(=O)NCCCN)c2[nH]1)C1CCCc2cccnc21` (stereo not drawn) [Example 15, N-(3-Aminopropyl)-2-{[ethyl(5,6,7,8-tetrahydro-8-quinolinyl)amino]methyl}-1H-benzimidazole-4-carboxamide], the IC50 [1, 5] is reported as 100 to 500 nM, the IC50 [1, 6] is reported as 141 nM and the IC50 [2] is reported as 120 nM. For the same compound, the IC50 at 96 h [3] was > 100000 nM and the IC50 [4] was 355 nM.

Work on `CN1CCN(C(=O)c2cccc3[nH]c(CN(C)C4CCCc5cccnc54)nc23)CC1` (stereo not drawn) [Example 22, N-Methyl-N-({4-[(4-methyl-1-piperazinyl)carbonyl]-1H-benzimidazol-2-yl}methyl)-5,6,7,8-tetrahydro-8-quinolinamine] yielded an IC50 [1, 5] of 100 to 500 nM, an IC50 [1, 6] of 331 nM and an IC50 [2] of 170 nM. For the same compound, the IC50 at 96 h [3] was > 100000 nM and the IC50 [4] was 1050 nM.

For `CN(Cc1nc2cccc(C(=O)N3CCNCC3)c2[nH]1)C1CCCc2cccnc21` (stereo not drawn) [Example 21, N-Methyl-N-{[4-(1-piperazinylcarbonyl)-1H-benzimidazol-2-yl]methyl}-5,6,7,8-tetrahydro-8-quinolinamine], the IC50 [1, 5] was < 100 nM, the IC50 [1, 6] was 46 nM and the IC50 [2] was 15.8 nM. For the same compound, the IC50 at 96 h [3] was > 100000 nM and the IC50 [4] was 60.3 nM.

In the case of `CN(Cc1nc2c(CNCCc3c[nH]cn3)cccc2[nH]1)C1CCCc2cccnc21` (stereo not drawn) [Example 32, N-{[4-({[2-(1H-Imidazol-4-yl)ethyl]amino}methyl)-1H-benzimidazol-2-yl]methyl}-N-methyl-5,6,7,8-tetrahydro-8-quinolinamine], the IC50 [1, 5] is reported as < 100 nM, the IC50 [1, 6] is reported as 45 nM and the IC50 [2] is reported as 66.1 nM. For the same compound, the IC50 at 96 h [3] was 7590 nM and the IC50 [4] was 85.1 nM.

With `CN(Cc1nc2cc(C(=O)NCc3ccc(CN)cc3)ccc2[nH]1)C1CCCc2cccnc21` (stereo not drawn) [Example 20, N-{[4-(Aminomethyl)phenyl]methyl}-2-{[methyl(5,6,7,8-tetrahydro-8-quinolinyl)amino]methyl}-1H-benzimidazole-5-carboxamide] the IC50 [1, 5] was 500 to 10000 nM, the IC50 [1, 6] was 2350 nM and the IC50 [2] was > 100000 nM. The IC50 at 96 h [3] was > 100000 nM and the IC50 [4] was 5620 nM.

With `CN(Cc1nc2c(N3CCNCC3)cccc2[nH]1)C1CCCc2cccnc21` (stereo not drawn) [Example 34, N-methyl-N-{[4-(1-piperazinyl)-1H-benzimidazol-2-yl]-methyl}-5,6,7,8-tetrahydro-8-quinolinamine] the IC50 [1, 6] was 6.2 nM, the IC50 [2] was 8.13 nM and the IC50 at 96 h [3] was > 100000 nM. For the same compound, the IC50 [4] was 5.5 nM.

In the case of `CN(Cc1nc2c(C(=O)NCCCN3CCCC3)cccc2[nH]1)C1CCCc2cccnc21` (stereo not drawn) [Example 28, 2-{[Methyl(5,6,7,8-tetrahydro-8-quinolinyl)amino]methyl}-N-[3-(1-pyrrolidinyl)propyl]-1H-benzimidazole-4-carboxamide], the IC50 [1, 5] is reported as < 100 nM, the IC50 [1, 6] is reported as 44 nM and the IC50 [2] is reported as 57.5 nM. The IC50 at 96 h [3] was > 100000 nM and the IC50 [4] was 148 nM.
